For one assay, the system named is PB2 bisabolol biosensor. Description: PB2 bisabolol biosensor reporter fluorescence (Gemini reporter, GFP portion) in E. coli EPI300 host cells. The note with it: E. coli EPI300 with PB2, high (0.01% arabinose) or low copy number. The class given is cell-based, E. coli EPI300 (PB2 insert originating from Pseudomonas). How it is done:
(§1) A metagenomic library made from environmental samples obtained from hots springs, permafrost, sea water, soil, and hydrocarbon resource samples (from soil) was made using the Meta-G-Nome™ DNA Isolation Kit and CopyControl™ Fosmid Library Production Kit obtained from Epicentre. 300-400 fosmid clones from this library were obtained and mixed with a Tn5 transposase and sufficient biosensor construct (FIG. 1) was added to give about 10 biosensor inserts per fosmid. The transposase randomly integrated the biosensor construct into the fosmid vector, and the modified fosmid library with biosensor constructs was transformed into E. coli strain EPI300™ (commercially sold by Epicentre). The E. coli EPI300™ transformed with the modified fosmid library was plated on LB media with 20 μg/ml spectinomycin and 0.01% arabinose.
(§2) These functional biosensors were interrogated with (−)-α-bisabolol and clones that produced reporter fluorescence above control in response to the (−)-α-bisabolol were selected. Two bisabolol positive clones were selected and designated PB2 and PB3. PB2 was obtained from a fosmid with an insert originating from Pseudomonas, and PB3 was obtained from a fosmid with an insert originating from Bradyrhizobium.
(§3) As described above, the copy number of the fosmids with the PB2 biosensor and the PB3 biosensor can by increased in E. coli EPI300™ host cells that are treated with arabinose to induce an increase in copy number of the fosmid. E. coli EPI300™ with the PB2 or PB3 biosensors were treated (high copy number) or not treated (low copy number) with arabinose and then screened for reporter activity (Gemini reporter fluorescence from the GFP portion).
(§4) E. coli EPI300™ with fosmids containing PB2 or PB3 were grown without arabinose (low copy number) and in the presence of spectinomycin (200 μg/ml for PB2 and 500 μg/ml for PB3). The host cells were treated with different concentrations of (−)-α-bisabolol (0.0, 0.1, 0.25, 0.4, 0.5, 1.0 and 1.5 mM). FIGS. 6 and 7 show the fluorescence results for PB2 and PB3. Both biosensors show a dose response between 0.05 and 1.0 mM (−)-α-bisabolol.
(§5) E. coli EPI300™ with fosmids containing PB2 or PB3 were grown with 0.01% arabinose for high copy number of the biosensor, or grown in the absence of arabinose for low copy number of the biosensor, and then treated with a sesquiterpene: (−)-α-bisabolol, squalene, nerolidol, cintonellal, carvone, farnesene, or cineole. PB2 was also tested against linalool and PB3 was tested against ursolic acid.

In a further assay the test system is PB3 bisabolol biosensor. Description: PB3 bisabolol biosensor reporter fluorescence (Gemini reporter, GFP portion) in E. coli EPI300 host cells. It counts as cell-based, E. coli EPI300 (PB3 insert originating from Bradyrhizobium). The note with it: for response of PB3 biosensor to stimulation with the compound: E. coli EPI300 with PB3, high (0.01% arabinose) or low copy number. How it is done: as §1, §2, §3, §4, §5

From patent US20190024193A1, “Sesquiterpene Biosensors and Uses Thereof” (priority 2017, published 2019) come the findings set out here.

For `CC(C)=CCC[C@](C)(O)[C@@H]1CC=C(C)CC1` [(−)-α-bisabolol], the “response of PB2 biosensor to stimulation with the compound” value (shortened to “response of PB2 biosensor to stimulation”) in the assay with PB2 bisabolol biosensor was “high specificity for induction”.

With `C=C(C)C1CC=C(C)C(=O)C1` (stereo not drawn) [carvone], the “response of PB3 biosensor to stimulation with the compound” value (shortened to “response of PB3 biosensor to stimulation”) in the assay on PB3 bisabolol biosensor is “did not respond above background”. Further, the “response of PB2 biosensor to stimulation” value with PB2 bisabolol biosensor is “did not respond above background”.

Turning to `CC12CCC(CC1)C(C)(C)O2` [cineole], the “response of PB3 biosensor to stimulation” value in the assay with PB3 bisabolol biosensor is “did not respond above background”. Besides, in the assay on PB2 bisabolol biosensor, the “response of PB2 biosensor to stimulation” value is given as “did not respond above background”.

`CC(C)=CCC[C@@H](C)CC=O` [cintonellal]: the “response of PB3 biosensor to stimulation” value in the assay on PB3 bisabolol biosensor is “did not respond above background”. Further, the “response of PB2 biosensor to stimulation” value with PB2 bisabolol biosensor is on record as “did not respond above background”.

As to `C=CC(C)(O)CCC=C(C)C` (stereo not drawn) [linalool], the “response of PB2 biosensor to stimulation” value in the assay with PB2 bisabolol biosensor is reported as “did not respond above background”.

As for `C=CC(C)(O)CCC=C(C)CCC=C(C)C` (stereo not drawn) [nerolidol], in the assay on PB3 bisabolol biosensor (E. coli EPI300 with PB3, 1 mM nerolidol), the “response of PB3 biosensor relative to (−)-α-bisabolol” value is on record as “comparable activity to PB3 treated with 0.2 mM (−)-α-bisabolol”. In the assay with PB2 bisabolol biosensor, the “response of PB2 biosensor to stimulation” value is “did not respond above background”.

For `CC(C)=CCC/C(C)=C/CC/C(C)=C/CC/C=C(\C)CC/C=C(\C)CCC=C(C)C` [squalene], the “response of PB3 biosensor to stimulation” value with PB3 bisabolol biosensor was “did not respond above background”. Also, in the assay with PB2 bisabolol biosensor, the “response of PB2 biosensor to stimulation” value is “did not respond above background”.

`C[C@H]1[C@H](C)CC[C@]2(C(=O)O)CC[C@]3(C)C(=CC[C@@H]4[C@@]5(C)CC[C@H](O)C(C)(C)[C@@H]5CC[C@]43C)[C@H]12` [ursolic acid]: in the assay on PB3 bisabolol biosensor, the “response of PB3 biosensor to stimulation” value is listed as “did not respond above background”.

Regarding farnesene, in the assay on PB3 bisabolol biosensor, the “response of PB3 biosensor to stimulation” value is “did not respond above background”. Also, in the assay on PB2 bisabolol biosensor, the “response of PB2 biosensor to stimulation” value is “did not respond above background”.
